Test results taken from patent US20240317721A1, “PYRAZOLYL DERIVATIVES AS INHIBITORS OF THE KRAS MUTANT PROTEIN” (NOVARTIS AG, priority 2021, published 2024).

Legend:
KRasG12C mutant = KRasG12C mutant (Homo sapiens (Human), UniProt P01116, G12C); test: covalent competition assay; assay type: binding; conditions: comparison of the two atropisomers; a(R) vs a(S) configuration
[1] = biological target: KRasG12C (M1-K169, biotinylated on the N-terminus) (Homo sapiens (Human), UniProt P01116, G12C); test: Covalent competition assay: scintillation proximity assay (SPA) quantifying covalent modification of KRASG12C; assay type: binding; conditions: competition with radiolabeled covalent probe (Compound B/Compound A), 2 hours incubation, 10 nM KRasG12C
Procedure, shortened: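 Scintillation proximity readout after streptavidin bead capture (30 min) of biotinylated KRasG12C(M1-K169):GDP, 10 nM final, which was covalently labelled over 2 h by 25 nM radio-probe plus 475 nM cold probe unless blocked by compound.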

KRasG12C = KRasG12C (Homo sapiens (Human), UniProt P01116, G12C); test: MS-based assay assessing % modification of KRasG12C over compound concentrations and time points; assay type: biochemical; conditions: non-labeled ligand, internally determined, read-out: (kinact/KI)probe, second order rate constant for modification of KRasG12C

| Structure (SMILES) | relative activity of the atropisomers of a pair in the covalent competition assay (KRasG12C mutant) | IC50 [1] [nM] | kinact/KI (KRasG12C) [M⁻¹ s⁻¹] |
| --- | --- | --- | --- |
| C=CC(=O)Nc1ccc(-n2c(C)c(-c3c(C)ccc4[nH]ncc34)c3cccnc32)c(F)c1 [Compound A, N-(3-fluoro-4-(2-methyl-3-(5-methyl-1H-indazol-4-yl)-1H-pyrrolo[2,3-b]pyridin-1-yl)phenyl)acrylamide] | – | – | ~5000 |
| C=CC(=O)N1CC2(CC(n3nc(N4CCC(C(=O)N(C)C)CC4(C)C)c(-c4c(Cl)c(C)cc5[nH]ncc45)c3C)C2)C1 (stereo not drawn) [Example 99b, 1-(1-(2-acryloyl-2-azaspiro[3.3]heptan-6-yl)-4-(5-chloro-6-methyl-1H-indazol-4-yl)-5-methyl-1H-pyrazol-3-yl)-N,N,2,2-tetramethylpiperidine-4-carboxamide] | – | > 5000 | – |
| C=CC(=O)N1CC2(CC(n3nc(N4CCN(C5COC5)C5COCC54)c(-c4c(Cl)c(C)cc5[nH]ncc45)c3C)C2)C1 (stereo not drawn) [Example 136b, 1-(6-(4-(5-chloro-6-methyl-1H-indazol-4-yl)-5-methyl-3-((4aS*,7aS*)-4-(oxetan-3-yl)hexahydrofuro[3,4-b]pyrazin-1(2H)-yl)-1H-pyrazol-1-yl)-2-azaspiro[3.3]heptan-2-yl)prop-2-en-1-one] | – | > 5000 | – |
| C=CC(=O)N1CC2(CC(n3nc(N4CCN(C5COC5)C5COCC54)c(-c4c(Cl)c(C)cc5[nH]ncc45)c3C)C2)C1 (stereo not drawn) [Example 137a, 1-(6-(4-(5-chloro-6-methyl-1H-indazol-4-yl)-5-methyl-3-((4aS*,7aS*)-4-(oxetan-3-yl)hexahydrofuro[3,4-b]pyrazin-1(2H)-yl)-1H-pyrazol-1-yl)-2-azaspiro[3.3]heptan-2-yl)prop-2-en-1-one] | – | > 5000 | – |
| C=CC(=O)N1CC2(CC(n3nc(N4CCN(C5COC5)CC45CCOC5)c(-c4c(Cl)c(C)cc5[nH]ncc45)c3C)C2)C1 (stereo not drawn) [Example 141a, 1-(6-(4-(5-chloro-6-methyl-1H-indazol-4-yl)-5-methyl-3-(9-(oxetan-3-yl)-2-oxa-6,9-diazaspiro[4.5]decan-6-yl)-1H-pyrazol-1-yl)-2-azaspiro[3.3]heptan-2-yl)prop-2-en-1-one] | – | > 5000 | – |
| C=CC(=O)N1CC2(CC(n3nc(N4CCN(C5COC5)CC45CCOC5)c(-c4c(Cl)c(C)cc5[nH]ncc45)c3C)C2)C1 (stereo not drawn) [Example 142b, 1-(6-(4-(5-chloro-6-methyl-1H-indazol-4-yl)-5-methyl-3-(9-(oxetan-3-yl)-2-oxa-6,9-diazaspiro[4.5]decan-6-yl)-1H-pyrazol-1-yl)-2-azaspiro[3.3]heptan-2-yl)prop-2-en-1-one] | – | > 5000 | – |

Further lines, results first:

| relative activity of the atropisomers of a pair in the covalent competition assay (KRasG12C mutant) | IC50 [1] [nM] | kinact/KI (KRasG12C) [M⁻¹ s⁻¹] | Structure (SMILES) |
| --- | --- | --- | --- |
| less active atropisomer | > 5000 | – | C=CC(=O)N1CC2(CC(n3nc(N4CCN(C(C)=O)C[C@]4(C)CC)c(-c4c(Cl)c(C)cc5[nH]ncc45)c3C)C2)C1 (single isomer, unassigned) [Example 121a] |
| most active atropisomer | 8 | – | C=CC(=O)N1CC2(CC(n3nc(N4CCN(C(C)=O)C[C@]4(C)CC)c(-c4c(Cl)c(C)cc5[nH]ncc45)c3C)C2)C1 (single isomer, unassigned) [Example 121b] |
| – | 1700 | – | C=CC(=O)N1CC2(CC(n3nc(N4CCN(C[C@@H]5COCCO5)C[C@]4(C)CC)c(-c4c(O)cccc4Cl)c3C)C2)C1 [Example 111, 1-(6-(3-((S)-4-(((R)-1,4-dioxan-2-yl)methyl)-2-ethyl-2-methylpiperazin-1-yl)-4-(2-chloro-6-hydroxyphenyl)-5-methyl-1H-pyrazol-1-yl)-2-azaspiro[3.3]heptan-2-yl)prop-2-en-1-one] |
| – | 450 | – | Cc1cc2[nH]ncc2c(-c2c(N3CCN(C4COC4)CC34CCC4)nn(C3CC4(C3)CN(C(=O)[C@@H]3CO3)C4)c2C)c1Cl [Example 139, (S)-(6-(4-(5-chloro-6-methyl-1H-indazol-4-yl)-5-methyl-3-(8-(oxetan-3-yl)-5,8-diazaspiro[3.5]nonan-5-yl)-1H-pyrazol-1-yl)-2-azaspiro[3.3]heptan-2-yl)(oxiran-2-yl)methanone] |
| – | 302 | – | C=CC(=O)N1CC2(CC(n3nc(N4CCN(CC(C)(C)O)CC45CCC5)c(-c4c(OC)c(Cl)cc5[nH]ncc45)c3C)C2)C1 [Example 168, 1-(6-(4-(6-chloro-5-methoxy-1H-indazol-4-yl)-3-(8-(2-hydroxy-2-methylpropyl)-5,8-diazaspiro[3.5]nonan-5-yl)-5-methyl-1H-pyrazol-1-yl)-2-azaspiro[3.3]heptan-2-yl)prop-2-en-1-one] |
| – | < 5 | – | C=CC(=O)N1CC2(CC(n3nc(N4CCN(C[C@@H]5COCCO5)C[C@]4(C)CC)c(-c4c(Cl)c(C)cc5[nH]ncc45)c3C#N)C2)C1 [Example 176, 3-((S)-4-(((R)-1,4-dioxan-2-yl)methyl)-2-ethyl-2-methylpiperazin-1-yl)-1-(2-acryloyl-2-azaspiro[3.3]heptan-6-yl)-4-(5-chloro-6-methyl-1H-indazol-4-yl)-1H-pyrazole-5-carbonitrile] |
| – | 600 | – | C=CC(=O)N1CC2(CC(n3cc(-c4c(Cl)c(C)cc5[nH]ncc45)c(N4CC[C@@H](CN5CCOCC5)CC4(C)C)n3)C2)C1 [Example 223, (R)-1-(6-(4-(5-chloro-6-methyl-1H-indazol-4-yl)-3-(2,2-dimethyl-4-(morpholinomethyl)piperidin-1-yl)-1H-pyrazol-1-yl)-2-azaspiro[3.3]heptan-2-yl)prop-2-en-1-one] |
